Literature values, collected in patent US20180125800A1, “Stable Formulation for Parenteral Administration of Tapentadol” (Gruenenthal GmbH, priority 2015, published 2018).

Conditions: more pronounced at higher pH values

CC[C@@H](c1cccc(O)c1)[C@@H](C)CN(C)C [Tapentadol, (1R,2R)-3-(3-dimethylamino-1-ethyl-2-methyl-propyl)-phenol]
antimicrobial properties: exhibits antimicrobial properties
